Measurements as given in patent US20130059773A1, “COMPOUNDS FOR THE TREATMENT OF INFLAMMATION AND NEUTROPENIA” (priority 2010, published 2013).
“Also recorded” adds a separate entry of the source. Where a SMILES comes first, the peptide text is derived from it. The star is where a group is joined. Cbz = O=C(OCc1ccccc1)*

Tests used:
Format in all cases: cell-based, human
PCNA = PCNA expression in neutrophils by Western blot; settings: for Effect of proteasome inhibitors on apoptosis-induced PCNA diminution: neutrophils 15 h at 37° C.
Experimental: Western blot analysis and co-immunoprecipitation experiments. Neutrophils were sonicated and cytosolic proteins were analyzed using either the PC10 mAb or the Ab5 pAb anti-PCNA according to standard immunoblot procedures (Moriceau et al. 2009, J. Immunol. 182:7254-7263). Co-immunoprecipitation experiments were performed using neutrophil cytosols obtained by cavitation (Witko-Sarsat et al. 1999, Blood 94:2487-2496). Cytosol ([…]) was mixed with […] of protein G and Ab5 pAb and incubated for 30 min at 4° C. under shaking. The sample was loaded onto a column containing Sepharose-coated magnetic beads (Milteny), washed with a stringent washing buffer (50 mM Tris, 500 mM NaCl, 1% NP-40, 0.5% Triton X-100). The column was washed twice with this buffer, twice with the same buffer except that the NaCl was 300 mM and, finally, 5 times with a hyposaline buffer (20 mM Tris pH 7.5). The sample was eluted from the column with […] 5× sample buffer and analyzed by Western blotting using different mAb to potential partners. PCNA was detected on the Western blot with the PC10 mAb and procaspases were detected with either anti-procaspase-8 (Calbiochem) mAb or mouse anti-procaspase-10 (Santa Cruz) or anti-procaspase-9 (Santa Cruz) or anti-procaspase-3 (Santa Cruz) mAbs, followed by horseradish peroxidase-conjugated anti-mouse IgG (Nordic Immunology diluted 1:5000), using the SuperSignal West Pico detection kit (Pierce).

neutrophils [1] = assay: Neutrophil apoptosis/survival by phosphatidylserine externalization after annexin-V and 7-AAD labeling; settings: for Effect of proteasome inhibitors on neutrophil death: neutrophils 15 h at 37° C.
Experimental: Analysis of apoptosis. Neutrophil apoptosis was triggered by incubating neutrophils at 37° C. alone (constitutive apoptosis) or with anti-Fas mAb (10 ng/ml; Beckman-Coulter) or gliotoxin ([…]; Sigma) (Ward et al. 1999, J. Biol. Chem. 274:4309-4318) for the indicated times. Neutrophil apoptosis was evaluated by phosphatidylserine externalization after annexin-V and 7-AAD labeling (Kantari et al. 2007, Blood 110:4086-4095); mitochondrial depolarization after DiOC6 labeling (Moriceau et al. 2009, J. Immuno1.182:7254-7263); caspase-3 and caspase-8 activities measured by spectrophotometry (Biovision) in neutrophil lysates. In DMF-differentiated-PLB985 cells, apoptosis was triggered by gliotoxin or by rTRAIL (10 ng/ml; RD System) (Yin et al. 2005, Int. J. Biochem. Cell Biol. 37:1696-1708) and caspase-8 and caspase-9 activities were determined after gating on CD11b^+ cells using the Caspase-Glow® assay (Promega). Apoptosis-induced chromatin condensation and DNA fragmentation were assessed, respectively, after DNA staining with the blue fluorescent dye Hoechst (5 mg/ml) and propidium-iodide staining (Goepel et al. 2004, J. Leukoc. Biol. 75:836-843). Carboxyp21 ([…], SEQ ID NO: 24) corresponding to the p21 carboxy-terminus sequence (residues 141-160) and containing a RYIRS carboxy-terminal extension to facilitate its cell entry was synthesized and purified (Genecust). A modified peptide in which the charged amino acids responsible for its binding to PCNA have been changed according to dynamic simulation studies ([…], SEQ ID NO: 25) served as control. The effect of PS-341 (LC Laboratories) and MG132 were tested on neutrophil apoptosis and PCNA expression as indicated.

neutrophils [2] = assay: Effects of the peptides on neutrophil apoptosis (annexin V / 7-AAD flow cytometry); settings: for Early Apoptosis, Mean / Late Apoptosis, Mean / Total Apoptosis, Mean: peptide concentration = 200 μM, 16 h at 37° C.; for Early Apoptosis, Mean: percentage annexin-V positive and 7-AAD negative; for Late Apoptosis, Mean: percentage annexin-V positive and 7-AAD positive; for Total Apoptosis, Mean: percentage of cells either 7-AAD or annexin-V-positive; for Early Apoptosis / Late Apoptosis / Total Apoptosis: peptide concentration = 500 μM
Experimental: Effects of the peptides on neutrophil apoptosis. Neutrophils were isolated from the blood of healthy volunteers using polymorphoprep (Witko-Sarsat et al. 1999; Blood 94:2487-96). Physiological apoptosis of these neutrophils was then activated by incubating them at 37° C. during 16 h in RPMI culture medium complemented with 10% serum. Under these conditions, neutrophils undergo a spontaneous apoptosis which can be evaluated by measuring the phosphatidylserine externalization (Kantari et al. 2007; Blood 110:4086-95; Moriceau et al. 2009; J Immunol 182:7254-63). Phosphatidylserine was stained using a fluorochrome-coupled annexin V allowing detection of apoptotic neutrophils by flow cytometry using a Facscan (Beckton Dickinson). Neutrophils stained with annexin V express the phosphatidylserine and are recognized and phagocytosed by macrophages. Furthermore, a secondary staining with the 7AAD intercalating agent was used to indicate late apoptosis (Durant et al. 2004; J Leukocyte Biol 75:87-98). Thus, total apoptosis is measured by the percentage of cells being either 7-AAD or annexin-V-positive (the rest of the cells being considered as viable). Early apoptosis is measured by the percentages of neutrophils being both annexin-V positive and 7-AAD negative. Late apoptosis is measured by the percentages of neutrophils being both annexin-V positive and 7-AAD positive. The necrotic cells being 7AAD positive are excluded from the analysis on the basis of the data of size/granulometry by flow cytometry analysis. […]
The peptides were added to the neutrophil cells and their effect on cell apoptosis was analyzed by measuring the phosphatidylserine externalization. Phosphatidylserine was stained using a fluorochrome-coupled annexin V allowing detection of apoptotic neutrophils by flow cytometry. Neutrophils stained with annexin V express the phosphatidylserine and are recognized and phagocytosed by macrophages. Furthermore, a secondary staining with the 7AAD intercalating agent was used to indicate late apoptosis, allowing distinction between early and late apoptosis.

neutrophils [3] = assay: Neutrophil apoptosis by mitochondrial depolarization after DiOC6 labeling; set-up: dose or concentration left out as unconfirmed; settings: 6 h at 37° C., peptide
Experimental: Analysis of apoptosis. Neutrophil apoptosis was triggered by incubating neutrophils at 37° C. alone (constitutive apoptosis) or with anti-Fas mAb (10 ng/ml; Beckman-Coulter) or gliotoxin ([…]; Sigma) (Ward et al. 1999, J. Biol. Chem. 274:4309-4318) for the indicated times. Neutrophil apoptosis was evaluated by phosphatidylserine externalization after annexin-V and 7-AAD labeling (Kantari et al. 2007, Blood 110:4086-4095); mitochondrial depolarization after DiOC6 labeling (Moriceau et al. 2009, J. Immuno1.182:7254-7263); caspase-3 and caspase-8 activities measured by spectrophotometry (Biovision) in neutrophil lysates. In DMF-differentiated-PLB985 cells, apoptosis was triggered by gliotoxin or by rTRAIL (10 ng/ml; RD System) (Yin et al. 2005, Int. J. Biochem. Cell Biol. 37:1696-1708) and caspase-8 and caspase-9 activities were determined after gating on CD11b^+ cells using the Caspase-Glow® assay (Promega). Apoptosis-induced chromatin condensation and DNA fragmentation were assessed, respectively, after DNA staining with the blue fluorescent dye Hoechst (5 mg/ml) and propidium-iodide staining (Goepel et al. 2004, J. Leukoc. Biol. 75:836-843). Carboxyp21 ([…], SEQ ID NO: 24) corresponding to the p21 carboxy-terminus sequence (residues 141-160) and containing a RYIRS carboxy-terminal extension to facilitate its cell entry was synthesized and purified (Genecust). […]

CC(C)C[C@@H](C=O)NC(=O)[C@H](CC(C)C)NC(=O)[C@H](CC(C)C)NC(=O)OCc1ccccc1 [MG132, reference compound] (Cbz-Leu-Leu-Leu-aldehyde)
Effect of proteasome inhibitors on apoptosis-induced PCNA diminution (PCNA): reversed the apoptosis-induced PCNA diminution
Effect of proteasome inhibitors on neutrophil death (neutrophils [1]): significantly inhibited neutrophil death

CC(C)C[C@H](NC(=O)[C@H](Cc1ccccc1)NC(=O)c1cnccn1)B(O)O [PS-341, reference compound]
Effect on PCNA degradation after incubation with anti-Fas or gliotoxin (PCNA; 6 h at 37° C., PS-341 (1 mM)): reversed PCNA degradation
Effect of proteasome inhibitors on apoptosis-induced PCNA diminution (PCNA): reversed the apoptosis-induced PCNA diminution
Effect of proteasome inhibitors on neutrophil death (neutrophils [1]): significantly inhibited neutrophil death

APNQEKVSDYEMKLMRYIRS [peptide 1]
Early Apoptosis, Mean (neutrophils [2]): 62.52
Late Apoptosis, Mean (neutrophils [2]): 11.47
Total Apoptosis, Mean (neutrophils [2]): 73.67
Early Apoptosis (neutrophils [2]; Table V (peptides 1-4)): 65.06
Late Apoptosis (neutrophils [2]; Table V (peptides 1-4)): 6.62
Total Apoptosis (neutrophils [2]; Table V (peptides 1-4)): 68.74

KDGVKFRYIRS [peptide 5]
Early Apoptosis, Mean (neutrophils [2]): 62.44
Late Apoptosis, Mean (neutrophils [2]): 12.36
Total Apoptosis, Mean (neutrophils [2]): 74.36
Early Apoptosis (neutrophils [2]; Table VI (peptides 5-9)): 75.21
Late Apoptosis (neutrophils [2]; Table VI (peptides 5-9)): 5.39
Total Apoptosis (neutrophils [2]; Table VI (peptides 5-9)): 77.67

KRRQTGETDFDHAKAALIFSRYIRS [modified carboxy-21 peptide, reference compound]
Apoptotic neutrophils as cells with depolarized mitochondria after DiOC6 labeling (neutrophils [3]): no such activity was observed

KRRQTSMTDFYHSKRRLIFSRYIRS [carboxyp21]
Apoptotic neutrophils as cells with depolarized mitochondria after DiOC6 labeling (neutrophils [3]): triggered neutrophil apoptosis
PCNA expression in neutrophils exposed to increasing peptide concentrations (PCNA; 3 h, increasing carboxyp21 concentrations): dose-dependent decrease of PCNA expression
Cells with externalized phosphatidylserine after annexin-V labeling (neutrophils [1]; 6 h at 37° C., 50 mM peptide): significantly increased percentage of cells with externalized phosphatidylserine
Effect on G-CSF-induced neutrophil survival (neutrophils [1]; G-CSF 1000 U/ml, carboxyp21 50 μM, 15 h): significantly inhibited G-CSF-induced neutrophil survival

MKLMDLDVEQLGIPEQEYSRYIRS [peptide 3]
Pro- or anti-apoptotic activity on neutrophils, conclusion in words (neutrophils [2]): exhibit a pro-apoptotic activity on neutrophils
Effect on annexin V staining (neutrophil apoptosis), in words (neutrophils [2]; 500 μM): induced an increase of the annexin V staining
Early Apoptosis, Mean (neutrophils [2]): 63.00
Late Apoptosis, Mean (neutrophils [2]): 13.27
Total Apoptosis, Mean (neutrophils [2]): 76.20
Early Apoptosis (neutrophils [2]; Table V (peptides 1-4)): 68.05
Late Apoptosis (neutrophils [2]; Table V (peptides 1-4)): 12.63
Total Apoptosis (neutrophils [2]; Table V (peptides 1-4)): 78.56

MSADVPLRYIRS [peptide 7]
Early Apoptosis, Mean (neutrophils [2]): 62.60
Late Apoptosis, Mean (neutrophils [2]): 12.30
Total Apoptosis, Mean (neutrophils [2]): 74.40
Early Apoptosis (neutrophils [2]; Table VI (peptides 5-9)): 66.26
Late Apoptosis (neutrophils [2]; Table VI (peptides 5-9)): 2.85
Total Apoptosis (neutrophils [2]; Table VI (peptides 5-9)): 64.85

SQTSNVDKEEEAVRYIRS [peptide 6]
Early Apoptosis, Mean (neutrophils [2]): 62.91
Late Apoptosis, Mean (neutrophils [2]): 13.11
Total Apoptosis, Mean (neutrophils [2]): 76.02
Early Apoptosis (neutrophils [2]; Table VI (peptides 5-9)): 66.43
Late Apoptosis (neutrophils [2]; Table VI (peptides 5-9)): 5.2
Total Apoptosis (neutrophils [2]; Table VI (peptides 5-9)): 67.42

YGRKKRRQRRRAPNQEKVSDYEMKLM [peptide 2]
Early Apoptosis, Mean (neutrophils [2]): 52.29
Late Apoptosis, Mean (neutrophils [2]): 17.38
Total Apoptosis, Mean (neutrophils [2]): 69.33
Early Apoptosis (neutrophils [2]; Table V (peptides 1-4)): 46.92
Late Apoptosis (neutrophils [2]; Table V (peptides 1-4)): 23.97
Total Apoptosis (neutrophils [2]; Table V (peptides 1-4)): 68.08

YGRKKRRQRRRMKLMDLDVEQLGIPEQEYS [peptide 4]
Pro- or anti-apoptotic activity on neutrophils, conclusion in words (neutrophils [2]): exhibit a pro-apoptotic activity on neutrophils
Effect on annexin V staining (neutrophil apoptosis), in words (neutrophils [2]; 200 μM): induced an increase of the annexin V staining
Pro-apoptotic activity on late apoptosis, in words (neutrophils [2]; 200 μM, Table IV): particularly obvious on late apoptosis
Early Apoptosis, Mean (neutrophils [2]): 62.34
Late Apoptosis, Mean (neutrophils [2]): 27.88
Total Apoptosis, Mean (neutrophils [2]): 89.83
Early Apoptosis (neutrophils [2]; Table V (peptides 1-4)): 53.11
Late Apoptosis (neutrophils [2]; Table V (peptides 1-4)): 33.74
Total Apoptosis (neutrophils [2]; Table V (peptides 1-4)): 82.84

YGRKKRRQRRRYYLAPKIEDEEGS [peptide 9]
Pro- or anti-apoptotic activity on neutrophils, conclusion in words (neutrophils [2]): capable of preventing neutrophil apoptosis
Early Apoptosis, Mean (neutrophils [2]): 50.03
Late Apoptosis, Mean (neutrophils [2]): 23.90
Total Apoptosis, Mean (neutrophils [2]): 73.43
Early Apoptosis (neutrophils [2]; Table VI (peptides 5-9)): 48.44
Late Apoptosis (neutrophils [2]; Table VI (peptides 5-9)): 26.32
Total Apoptosis (neutrophils [2]; Table VI (peptides 5-9)): 71.84

YYLAPKIEDEEGSRYIRS [peptide 8]
Pro- or anti-apoptotic activity on neutrophils, conclusion in words (neutrophils [2]): significant anti-apoptotic activity; also recorded: capable of preventing neutrophil apoptosis
Early Apoptosis, Mean (neutrophils [2]): 40.67
Late Apoptosis, Mean (neutrophils [2]): 6.23
Total Apoptosis, Mean (neutrophils [2]): 46.43
Early Apoptosis (neutrophils [2]; Table VI (peptides 5-9)): 48.94
Late Apoptosis (neutrophils [2]; Table VI (peptides 5-9)): 8.99
Total Apoptosis (neutrophils [2]; Table VI (peptides 5-9)): 48.77

interferon-g: cytokine that prolongs neutrophil survival
Effect on PCNA degradation in neutrophils (PCNA): prevented PCNA degradation
